Test results: patent US10538535B2, “Antitumoral compounds” (priority 2017, dated 2020)
Like-named read-outs stand apart in the source and are kept apart here.

What was measured:
Experiment in all cases: cells
HT29 cells = settings: for CC50: read-out: LC50; for IC (TGI): read-out: TGI
Source text: (§1) The aim of this assay is to evaluate the in vitro cytostatic (ability to delay or arrest tumor cell growth) or cytotoxic (ability to kill tumor cells) activity of the samples being tested.
(§2) A colorimetric assay, using sulforhodamine B (SRB) reaction has been adapted to provide a quantitative measurement of cell growth and viability (following the technique described by Skehan et al. J. Natl. Cancer Inst. 1990, 82, 1107-1112). Another colorimetric assay based on 3-(4,5-Dimethylthiazol-2-yl)-2,5-diphenyltetrazolium bromide (MTT) reduction to a purple formazan has been also used to assess the antiproliferative activity (following the technique described by Mosmann et al. J. Immunol. Meth. 1983, 65, 55-63).
(§3) These forms of assays employ 96-well cell culture microplates following the standards of the American National Standards Institute and the Society for Laboratory Automation and Screening (ANSI SLAS 1-2004 (R2012) Oct. 12, 2011. All the cell lines used in this study were obtained from the American Type Culture Collection (ATCC) and derive from different types of human cancer.
(§4) A549, HT29, MDA-MB-231 and PSN1 cells were maintained in Dulbecco's Modified Eagle Medium (DMEM) while PC-3 and 22Rv1 cells were maintained in Roswell Park Memorial Institute Medium (RPMI). All cell lines were supplemented with 10% Fetal Bovine Serum (FBS), 2 mM L-glutamine, 100 U/mL penicillin, and 100 […] at 37° C., 5% CO2 and 98% humidity. For the experiments, cells were harvested from subconfluent cultures using trypsinization and resuspended in fresh medium before counting and plating.
(§5) A549, HT29, MDA-MB-231 and PSN1 cells were seeded in 96 well microtiter plates, at 5000 cells per well in aliquots of 150 μL, and allowed to attach to the plate surface for 18 hours (overnight) in drug free medium. After that, one control (untreated) plate of each cell line was fixed (as described below) and used for time zero reference value. Culture plates were then treated with test compounds (50 μL aliquots of 4× stock solutions in complete culture medium plus 4% DMSO) using ten 2/5 serial dilutions (concentrations ranging from 10 to 0.003 μg/mL) and triplicate cultures (1% final concentration in DMSO). After 72 hours treatment, the antitumor effect was measured by using the SRB methodology: Briefly, cells were washed twice with PBS, fixed for 15 min in 1% glutaraldehyde solution at room temperature, rinsed twice in PBS, and stained in 0.4% SRB solution for 30 min at room temperature. Cells were then rinsed several times with 1% acetic acid solution and air-dried at room temperature.
(§6) Effects on cell growth and survival were estimated by applying the NCI algorithm (Boyd M R and Paull K D. Drug Dev. Res. 1995, 34, 91-104). The values obtained in triplicate cultures were fitted by nonlinear regression to a four-parameters logistic curve by nonlinear regression analysis.

A549 cells = settings: for IC (TGI): read-out: TGI; for CC50: read-out: LC50
Source text: as §1, §2, §3, §4, §5, §6

MDA-MB-231 cells = settings: for CC50 / IC (TGI) / GI50: Homo sapiens, MDA-MB-231, 72 h; for CC50: read-out: LC50; for IC (TGI): read-out: TGI
Source text: as §1, §2, §3, §4, §5, §6

PSN1 cells = settings: Homo sapiens, PSN1, 72 h; for IC (TGI): read-out: TGI; for CC50: read-out: LC50
Source text: as §1, §2, §3, §4, §5, §6

SMILES | CC50 (HT29 cells; Homo sapiens, HT-29, 72 h) | GI50 (A549 cells; Homo sapiens, A549, 72 h) | IC (TGI) (A549 cells; Homo sapiens, A549, 72 h) | IC (TGI) (HT29 cells; Homo sapiens, HT-29, 72 h) | CC50 (MDA-MB-231 cells) | IC (TGI) (MDA-MB-231 cells) | IC (TGI) (PSN1 cells) | CC50 (A549 cells; Homo sapiens, A549, 72 h) | CC50 (PSN1 cells) | other results
C=CCOC(=O)NC[C@@H]1Cc2c(oc3ccccc23)[C@@]2(CS[C@@H]3c4c(OC(C)=O)c(C)c5c(c4[C@H](COC2=O)N2[C@@H]3[C@H]3c4c(cc(C)c(OC)c4O)C[C@@H]([C@@H]2C#N)N3C)OCO5)N1 [Compound 45-S] | > 114 nM | – | – | – | – | – | – | – | – | –
COc1ccc2[nH]c3c(c2c1)C[C@@H](CO)N[C@]31CS[C@@H]2c3c(OC(C)=O)c(C)c4c(c3[C@H](COC1=O)N1[C@@H]2[C@H]2c3c(cc(C)c(OC)c3O)C[C@@H]([C@@H]1C#N)N2C)OCO4 [Compound 18-S] | – | 1.7 nM | 3.03 nM | 1.34 nM | 1.58 nM | 1.34 nM | 1.34 nM | – | – | GI50 (PSN1 cells; PSN1, 72 hours treatment, SRB): 0.959 nM
COc1ccc2[nH]c3c(c2c1)C[C@@H](CN)N[C@]31CS[C@@H]2c3c(OC(C)=O)c(C)c4c(c3[C@H](COC1=O)N1[C@@H]2[C@H]2c3c(cc(C)c(OC)c3O)C[C@@H]([C@@H]1C#N)N2C)OCO4 [Compound 26-S] | > 122 nM | 11.2 nM | 21.9 nM | 3.16 nM | 3.89 nM | 1.94 nM | 3.28 nM | > 122 nM | 3.52 nM | GI50 (HT29 cells; Homo sapiens, HT-29, 72 h): 2.79 nM; GI50 (MDA-MB-231 cells): 1.34 nM; GI50 (PSN1 cells; PSN1, 72 hours treatment, SRB): 3.04 nM
COc1c(C)cc2c(c1O)[C@@H]1[C@@H]3[C@@H]4SC[C@]5(N[C@@H](C)Cc6c5[nH]c5ccccc65)C(=O)OC[C@@H](c5c6c(c(C)c(OC(C)=O)c54)OCO6)N3[C@@H](C#N)[C@H](C2)N1C [B] | > 129 nM | 20.6 nM | 21.9 nM | 9.13 nM | 34.7 nM | 16.7 nM | 20.6 nM | > 129 nM | 23.1 nM | GI50 (HT29 cells; Homo sapiens, HT-29, 72 h): 8.48 nM; GI50 (MDA-MB-231 cells): 9 nM; GI50 (PSN1 cells): 19.3 nM
COc1c(C)cc2c(c1O)[C@@H]1[C@@H]3[C@@H]4SC[C@]5(N[C@@H](CO)Cc6c5[nH]c5ccccc65)C(=O)OC[C@@H](c5c6c(c(C)c(OC(C)=O)c54)OCO6)N3[C@@H](C#N)[C@H](C2)N1C [Compound 3-R] | > 126 nM | – | 0.579 nM | > 126 nM | 1.25 nM | 0.504 nM | 0.605 nM | > 126 nM | > 126 nM | GI50 (PSN1 cells; PSN1, 72 hours treatment, SRB): 0.39 nM
COc1c(C)cc2c(c1O)[C@@H]1[C@@H]3[C@@H]4SC[C@]5(N[C@H](C)Cc6c5[nH]c5ccccc65)C(=O)OC[C@@H](c5c6c(c(C)c(OC(C)=O)c54)OCO6)N3[C@@H](C#N)[C@H](C2)N1C [A] | > 129 nM | 8.36 nM | 8.87 nM | 8.36 nM | 14.1 nM | 9.38 nM | 15.4 nM | > 129 nM | 19.3 nM | GI50 (HT29 cells; Homo sapiens, HT-29, 72 h): 7.71 nM; GI50 (MDA-MB-231 cells): 7.07 nM; GI50 (PSN1 cells): 12.9 nM
COc1c(C)cc2c(c1O)[C@@H]1[C@@H]3[C@@H]4SC[C@]5(N[C@H](COC(C)=O)Cc6c5[nH]c5ccccc65)C(=O)OC[C@@H](c5c6c(c(C)c(OC(C)=O)c54)OCO6)N3[C@@H](O)[C@H](C2)N1C [Compound 4a-S] | > 121 nM | – | – | – | – | – | – | > 121 nM | – | –
COc1c(C)cc2c(c1O)[C@@H]1[C@@H]3[C@@H]4SC[C@]5(N[C@H](COC(C)=O)Cc6c5[nH]c5ccccc65)C(=O)OC[C@@H](c5c6c(c(C)c(OC(C)=O)c54)OCO6)N3[C@@H](C#N)[C@H](C2)N1C [Compound 3a-S] | > 120 nM | 3.11 nM | 3.23 nM | 3.23 nM | 4.9 nM | 3.59 nM | 3.59 nM | > 120 nM | 12 nM | GI50 (HT29 cells; Homo sapiens, HT-29, 72 h): 2.99 nM; GI50 (MDA-MB-231 cells): 2.87 nM; GI50 (PSN1 cells; PSN1, 72 hours treatment, SRB): 2.15 nM
COc1c(C)cc2c(c1O)[C@@H]1[C@@H]3[C@@H]4SC[C@]5(N[C@H](CN)Cc6c5oc5ccccc65)C(=O)OC[C@@H](c5c6c(c(C)c(OC(C)=O)c54)OCO6)N3[C@@H](O)[C@H](C2)N1C [Compound 47-S] | > 127 nM | – | – | – | 16.6 nM | – | – | > 127 nM | 12.7 nM | –
COc1c(C)cc2c(c1O)[C@@H]1[C@@H]3[C@@H]4SC[C@]5(N[C@@H](CN)Cc6c5oc5ccccc65)C(=O)OC[C@@H](c5c6c(c(C)c(OC(C)=O)c54)OCO6)N3[C@@H](C#N)[C@H](C2)N1C [Compound 46-R] | – | – | – | – | – | – | – | – | – | TGI (A549 cells; A549, 72 hours treatment, SRB): 2.77E−09 Molar; CC50 (A549 cells; A549, 72 hours treatment, SRB): > 126 nM; TGI (HT29 cells; HT29, 72 hours treatment, SRB): 1.39E−09 Molar; CC50 (HT29 cells; HT29, 72 hours treatment, SRB): > 126 nM; TGI (MDA-MB-231 cells; MDA-MB-231, 72 hours treatment, SRB): 1.39E−09 Molar
COc1c(C)cc2c(c1O)[C@@H]1[C@@H]3[C@@H]4SC[C@]5(N[C@H](CN)Cc6c5[nH]c5ccccc65)C(=O)OC[C@@H](c5c6c(c(C)c(OC(C)=O)c54)OCO6)N3[C@@H](C#N)[C@H](C2)N1C [Compound 11-S] | > 126 nM | – | – | > 126 nM | – | – | – | > 126 nM | – | –
C=CCOC(=O)NC[C@@H]1Cc2c([nH]c3ccccc23)[C@@]2(CS[C@@H]3c4c(OC(C)=O)c(C)c5c(c4[C@H](COC2=O)N2[C@@H]3[C@H]3c4c(cc(C)c(OC)c4O)C[C@@H]([C@@H]2C#N)N3C)OCO5)N1 [Compound 10-S] | > 1140 nM | – | – | – | – | – | – | – | – | –
COc1c(C)cc2c(c1O)[C@@H]1[C@@H]3[C@@H]4SC[C@]5(N[C@H](CN)Cc6c5oc5ccccc65)C(=O)OC[C@@H](c5c6c(c(C)c(OC(C)=O)c54)OCO6)N3[C@@H](C#N)[C@H](C2)N1C [Compound 46-S] | > 126 nM | – | – | – | – | – | – | > 126 nM | – | –
C=CCOC(=O)NC[C@H]1Cc2c([nH]c3ccccc23)[C@@]2(CS[C@@H]3c4c(OC(C)=O)c(C)c5c(c4[C@H](COC2=O)N2[C@@H]3[C@H]3c4c(cc(C)c(OC)c4O)C[C@@H]([C@@H]2O)N3C)OCO5)N1 [Compound 13-R] | > 115 nM | – | – | – | – | – | – | > 115 nM | – | –
C=CCOC(=O)NC[C@@H]1Cc2c([nH]c3ccccc23)[C@@]2(CS[C@@H]3c4c(OC(C)=O)c(C)c5c(c4[C@H](COC2=O)N2[C@@H]3[C@H]3c4c(cc(C)c(OC)c4O)C[C@@H]([C@@H]2O)N3C)OCO5)N1 [Compound 13-S] | > 1150 nM | – | – | – | – | – | – | – | – | –
C=CCOC(=O)NC[C@H]1Cc2c(oc3ccccc23)[C@@]2(CS[C@@H]3c4c(OC(C)=O)c(C)c5c(c4[C@H](COC2=O)N2[C@@H]3[C@H]3c4c(cc(C)c(OC)c4O)C[C@@H]([C@@H]2C#N)N3C)OCO5)N1 [Compound 45-R] | > 114 nM | – | – | – | – | – | – | – | – | –
COc1c(C)cc2c(c1O)[C@@H]1[C@@H]3[C@@H]4SC[C@]5(N[C@@H](CN)Cc6c5[nH]c5ccccc65)C(=O)OC[C@@H](c5c6c(c(C)c(OC(C)=O)c54)OCO6)N3[C@@H](C#N)[C@H](C2)N1C [Compound 11-R] | > 126 nM | 1.77 nM | – | > 126 nM | – | – | 1.89 nM | > 126 nM | > 126 nM | GI50 (HT29 cells; Homo sapiens, HT-29, 72 h): 1.39 nM; GI50 (PSN1 cells; PSN1, 72 hours treatment, SRB): 1.39 nM
C=CCOC(=O)NC[C@H]1Cc2c([nH]c3ccccc23)[C@@]2(CS[C@@H]3c4c(OC(C)=O)c(C)c5c(c4[C@H](COC2=O)N2[C@@H]3[C@H]3c4c(cc(C)c(OC)c4O)C[C@@H]([C@@H]2C#N)N3C)OCO5)N1 [Compound 10-R] | > 114 nM | – | – | > 114 nM | – | – | – | > 114 nM | – | –
COc1c(C)cc2c(c1O)[C@@H]1[C@@H]3[C@@H]4SC[C@]5(N[C@@H](CO)Cc6c5oc5ccccc65)C(=O)OC[C@@H](c5c6c(c(C)c(OC(C)=O)c54)OCO6)N3[C@@H](O)[C@H](C2)N1C [Compound 39-R] | > 127 nM | – | – | – | – | – | – | > 127 nM | – | –
